What follows are compounds tested against Metabotropic glutamate receptor 4 [Q124R] (Rattus norvegicus, UniProt P31423, Q124R) (assay: PubChem AID 2185).
Chain of Metabotropic glutamate receptor 4 [Q124R] (P31423 33-912 Q124R limits assumed): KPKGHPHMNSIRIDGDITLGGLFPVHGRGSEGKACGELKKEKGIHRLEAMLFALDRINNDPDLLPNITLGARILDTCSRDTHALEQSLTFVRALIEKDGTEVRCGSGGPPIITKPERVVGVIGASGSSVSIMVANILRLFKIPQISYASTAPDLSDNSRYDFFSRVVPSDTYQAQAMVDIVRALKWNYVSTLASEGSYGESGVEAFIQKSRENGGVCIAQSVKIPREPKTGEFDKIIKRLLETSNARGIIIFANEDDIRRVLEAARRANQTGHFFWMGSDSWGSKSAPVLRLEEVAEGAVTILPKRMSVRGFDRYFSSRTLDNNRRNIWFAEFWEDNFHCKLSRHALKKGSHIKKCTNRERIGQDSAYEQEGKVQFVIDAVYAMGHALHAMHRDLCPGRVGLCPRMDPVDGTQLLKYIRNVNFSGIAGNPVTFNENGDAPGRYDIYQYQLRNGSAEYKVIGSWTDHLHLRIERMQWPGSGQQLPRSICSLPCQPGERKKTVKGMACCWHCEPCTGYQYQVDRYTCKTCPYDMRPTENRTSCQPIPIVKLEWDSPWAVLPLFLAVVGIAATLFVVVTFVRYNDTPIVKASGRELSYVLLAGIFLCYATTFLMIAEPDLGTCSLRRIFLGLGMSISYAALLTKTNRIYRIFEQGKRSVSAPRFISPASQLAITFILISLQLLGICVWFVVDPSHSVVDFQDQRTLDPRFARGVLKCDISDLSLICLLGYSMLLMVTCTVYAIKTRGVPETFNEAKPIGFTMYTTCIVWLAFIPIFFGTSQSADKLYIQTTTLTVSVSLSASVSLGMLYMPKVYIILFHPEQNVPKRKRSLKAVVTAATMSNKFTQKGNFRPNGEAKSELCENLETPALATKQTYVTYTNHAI
COc1cc(NC(=O)c2ccccn2)ccc1F was tested, and the EC50 was 0.374 µM.
In the case of COc1ccc(NC(=O)c2ccccn2)cc1Cl, the EC50 is reported as 0.738 µM.
Work on COc1ccc(NC(=O)c2ccccn2)cc1OC yielded an EC50 of 2.35 µM.
COc1cc(NC(=O)c2ccccn2)ccc1C showed an EC50 of 0.208 µM.
Compound O=C(Nc1ccc(F)c(C(F)(F)F)c1)c1ccccn1 has an EC50 of 0.999 µM.
Compound O=C(Nc1ccc(Cl)c(C(F)(F)F)c1)c1ccccn1 has an EC50 of 1.71 µM.
With CC1(C)c2c1c(O)n(-c1ccc(NC(=O)c3ccccn3)cc1Cl)c2O [N-[3-chloranyl-4-[(1S,5R)-6,6-dimethyl-2,4-bis(oxidanylidene)-3-azabicyclo[3.1.0]hexan-3-yl]phenyl]pyridine-2-carboxamide] the EC50 was 0.69 µM.
In the case of O=C(Nc1ccc(-n2c(O)cc(-c3ccccc3)c2O)c(Cl)c1)c1ccccn1 [N-[3-chloro-4-(2,5-dioxo-3-phenyl-1-pyrrolidinyl)phenyl]-2-pyridinecarboxamide], the EC50 is reported as 0.49 µM.
Compound O=C(Nc1ccc(-n2c(O)ccc2O)c(Cl)c1)c1ccccn1 [N-[3-chloro-4-(2,5-dioxopyrrolidin-1-yl)phenyl]pyridine-2-carboxamide] has an EC50 of 6.89 µM.
In the case of O=C(Nc1ccc(-n2c(O)c3c(c2O)CCCC3)c(Cl)c1)c1ccccn1 [VU0366515-1], the EC50 is reported as 0.65 µM.
For O=C(Nc1ccc(-n2c(O)c3c(c2O)[C@H]2CC[C@@H]3O2)c(Cl)c1)c1ccccn1 [VU0405235-1], the EC50 was 2.29 µM.
